# What was measured:
# [1] = tested on: CCD841 colon epithelium cells; experiment: Toxicity to CCD841 colon epithelium cells; format: cell-based; settings: all concentrations tested (16-128 nM), 48 hours, FIG. 17
# Source text: (§1) Methodologies used for cell line AML12 (non-cancerous liver cells) and CCD841 (non-cancerous colon epithelial cells) are similar to the methods used for cancer cells.
# AML12 liver cells = experiment: Toxicity to AML12 liver cells; format: cell-based; settings: all doses studied (16-128 nM), 48 hours, FIG. 16
# Source text: as §1
# [2] = molecular target: T1, reduced folate carriers (RFCs) (Homo sapiens, UniProt P41440); settings: higher than MTX; cited from earlier work
# T1 sequence (P41440 1-591): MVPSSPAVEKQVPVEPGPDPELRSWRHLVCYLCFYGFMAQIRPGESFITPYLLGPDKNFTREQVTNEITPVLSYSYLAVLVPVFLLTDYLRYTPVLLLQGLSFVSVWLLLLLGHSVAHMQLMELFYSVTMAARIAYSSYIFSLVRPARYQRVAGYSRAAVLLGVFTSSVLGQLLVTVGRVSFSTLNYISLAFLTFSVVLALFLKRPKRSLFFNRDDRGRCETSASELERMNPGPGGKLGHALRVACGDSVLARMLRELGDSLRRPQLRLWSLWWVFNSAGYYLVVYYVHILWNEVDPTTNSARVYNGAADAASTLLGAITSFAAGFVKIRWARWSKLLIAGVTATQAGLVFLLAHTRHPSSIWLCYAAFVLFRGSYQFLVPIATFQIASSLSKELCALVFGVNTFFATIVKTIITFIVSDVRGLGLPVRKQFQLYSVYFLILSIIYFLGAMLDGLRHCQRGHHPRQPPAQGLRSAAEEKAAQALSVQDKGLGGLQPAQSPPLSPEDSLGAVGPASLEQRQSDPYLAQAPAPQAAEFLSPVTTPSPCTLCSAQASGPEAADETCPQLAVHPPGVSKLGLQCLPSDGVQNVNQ
smiles,measurement,setting,value
Nc1nc2[nH]cc(CCc3ccc(C(=O)N[C@@H](CCC(=O)O)C(=O)O)cc3)c2c(=O)[nH]1 [pemetrexed],Decrease in the number of CCD841 colon epithelium cells,[1],≥ 50%
same,Reduction in the AML12 liver cell counts,AML12 liver cells,approximately 40%
same,Affinity of RFCs for PMX relative to that for MTX,[2],2 fold
